Key:
Assay in all cases: Kinase selectivity, Z'-LYTE
Assay type in all cases: biochemical
FGFR4 = target: T1, FGFR4 (Homo sapiens, UniProt P22455)
T1 construct: purchased Invitrogen (Life Technologies) SelectScreen Z'-LYTE
Description: (§1) Kinase selectivity was assessed using a commercial service that employs a fluorescence-based, coupled-enzyme assay based on the differential sensitivity of phosphorylated and non-phosphorylated peptides to proteolytic cleavage (Invitrogen, Z'-LYTE®). This assay uses recombinant protein kinases and assay mixed optimized for each particular kinase (http://www.lifetechnologies.com/us/en/home/life-science/drug-discovery/target-and-lead-identification-and-validation /kinasebiology/kinase-activity-assays/z-lyte.html).

PAK7 (KIAA 1264) = target: T2, PAK7 (KIAA 1264) (Homo sapiens, UniProt Q9P286)
T2 construct: purchased Invitrogen (Life Technologies) SelectScreen Z'-LYTE
Description: as §1

BTK = target: T3, BTK (Homo sapiens, UniProt Q06187)
T3 construct: purchased Invitrogen (Life Technologies) SelectScreen Z'-LYTE
Description: as §1

JAK3 = target: T4, JAK3 (Homo sapiens, UniProt P52333)
T4 construct: purchased Invitrogen (Life Technologies) SelectScreen Z'-LYTE
T4 sequence (P52333 1-1124): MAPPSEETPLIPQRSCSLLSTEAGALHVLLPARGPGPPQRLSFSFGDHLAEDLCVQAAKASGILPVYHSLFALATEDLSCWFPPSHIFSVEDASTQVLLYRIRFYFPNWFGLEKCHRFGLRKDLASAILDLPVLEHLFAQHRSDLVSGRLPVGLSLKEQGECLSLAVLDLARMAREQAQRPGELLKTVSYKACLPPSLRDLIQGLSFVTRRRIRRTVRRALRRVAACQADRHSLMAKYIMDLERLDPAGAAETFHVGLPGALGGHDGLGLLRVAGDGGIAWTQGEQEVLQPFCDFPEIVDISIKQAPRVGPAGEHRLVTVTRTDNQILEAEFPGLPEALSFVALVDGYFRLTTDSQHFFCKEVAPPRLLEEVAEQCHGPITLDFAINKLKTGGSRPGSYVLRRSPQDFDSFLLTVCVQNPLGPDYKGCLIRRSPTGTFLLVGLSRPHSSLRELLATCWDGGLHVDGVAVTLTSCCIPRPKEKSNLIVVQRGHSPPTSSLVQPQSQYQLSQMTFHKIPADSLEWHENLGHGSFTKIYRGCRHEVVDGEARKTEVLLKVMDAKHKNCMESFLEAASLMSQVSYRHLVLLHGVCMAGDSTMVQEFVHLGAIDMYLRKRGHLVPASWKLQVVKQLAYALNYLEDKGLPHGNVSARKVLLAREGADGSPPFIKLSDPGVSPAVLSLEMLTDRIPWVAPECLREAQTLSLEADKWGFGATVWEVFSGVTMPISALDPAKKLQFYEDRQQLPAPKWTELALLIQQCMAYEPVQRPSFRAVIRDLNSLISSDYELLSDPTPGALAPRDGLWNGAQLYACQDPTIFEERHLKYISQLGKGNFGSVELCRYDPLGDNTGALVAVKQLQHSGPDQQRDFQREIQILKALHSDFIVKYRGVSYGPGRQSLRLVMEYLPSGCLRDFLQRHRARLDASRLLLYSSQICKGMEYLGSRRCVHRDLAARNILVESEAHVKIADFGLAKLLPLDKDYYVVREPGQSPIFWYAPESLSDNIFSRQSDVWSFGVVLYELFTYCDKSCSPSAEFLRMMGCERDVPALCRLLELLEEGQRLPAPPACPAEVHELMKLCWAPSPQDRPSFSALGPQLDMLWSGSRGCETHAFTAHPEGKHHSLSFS
Description: as §1

PIM1 = target: T5, PIM1 (Homo sapiens, UniProt P11309)
T5 construct: purchased Invitrogen (Life Technologies) SelectScreen Z'-LYTE
Description: as §1

FGFR2 = target: T6, FGFR2 (Homo sapiens, UniProt P21802)
T6 construct: purchased Invitrogen (Life Technologies) SelectScreen Z'-LYTE
Description: as §1

CHEK1 (CHK1) = target: T7, CHEK1 (CHK1) (Homo sapiens, UniProt O14757)
T7 construct: purchased Invitrogen (Life Technologies) SelectScreen Z'-LYTE
T7 sequence (O14757 1-476): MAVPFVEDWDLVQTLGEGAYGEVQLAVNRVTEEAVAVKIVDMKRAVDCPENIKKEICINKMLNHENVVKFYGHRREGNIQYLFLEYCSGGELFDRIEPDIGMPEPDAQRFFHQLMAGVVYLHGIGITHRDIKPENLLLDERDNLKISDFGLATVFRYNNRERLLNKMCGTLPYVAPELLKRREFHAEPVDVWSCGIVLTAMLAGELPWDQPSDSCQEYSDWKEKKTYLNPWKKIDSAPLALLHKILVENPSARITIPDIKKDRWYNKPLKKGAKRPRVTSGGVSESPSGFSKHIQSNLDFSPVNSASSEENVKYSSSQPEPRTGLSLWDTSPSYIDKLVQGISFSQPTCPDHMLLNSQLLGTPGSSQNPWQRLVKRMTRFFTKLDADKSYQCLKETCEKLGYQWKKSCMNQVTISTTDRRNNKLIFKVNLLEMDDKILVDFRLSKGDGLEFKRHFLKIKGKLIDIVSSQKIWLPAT
Description: as §1

MAPK3 (ERK1) = target: T8, MAPK3 (ERK1) (Homo sapiens, UniProt P27361)
T8 construct: purchased Invitrogen (Life Technologies) SelectScreen Z'-LYTE
Description: as §1

CDK5/p35 = target: T9, CDK5/p35 (Homo sapiens, UniProt Q00535)
T9 construct: purchased Invitrogen (Life Technologies) SelectScreen Z'-LYTE
Description: as §1

[1] = target: T10, P1K3CA/PIK3R1 (p110 alpha) (Homo sapiens, UniProt P42336)
T10 construct: purchased Invitrogen (Life Technologies) SelectScreen Z'-LYTE
Description: as §1

JAK2 = target: T11, JAK2 (Homo sapiens, UniProt O60674)
T11 construct: purchased Invitrogen (Life Technologies) SelectScreen Z'-LYTE
Description: as §1

PRKCB1 (PKC beta I) = target: T12, PRKCB1 (PKC beta I) (Homo sapiens, UniProt P05771)
T12 construct: purchased Invitrogen (Life Technologies) SelectScreen Z'-LYTE
Description: as §1

T11 sequence (O60674 whole entry): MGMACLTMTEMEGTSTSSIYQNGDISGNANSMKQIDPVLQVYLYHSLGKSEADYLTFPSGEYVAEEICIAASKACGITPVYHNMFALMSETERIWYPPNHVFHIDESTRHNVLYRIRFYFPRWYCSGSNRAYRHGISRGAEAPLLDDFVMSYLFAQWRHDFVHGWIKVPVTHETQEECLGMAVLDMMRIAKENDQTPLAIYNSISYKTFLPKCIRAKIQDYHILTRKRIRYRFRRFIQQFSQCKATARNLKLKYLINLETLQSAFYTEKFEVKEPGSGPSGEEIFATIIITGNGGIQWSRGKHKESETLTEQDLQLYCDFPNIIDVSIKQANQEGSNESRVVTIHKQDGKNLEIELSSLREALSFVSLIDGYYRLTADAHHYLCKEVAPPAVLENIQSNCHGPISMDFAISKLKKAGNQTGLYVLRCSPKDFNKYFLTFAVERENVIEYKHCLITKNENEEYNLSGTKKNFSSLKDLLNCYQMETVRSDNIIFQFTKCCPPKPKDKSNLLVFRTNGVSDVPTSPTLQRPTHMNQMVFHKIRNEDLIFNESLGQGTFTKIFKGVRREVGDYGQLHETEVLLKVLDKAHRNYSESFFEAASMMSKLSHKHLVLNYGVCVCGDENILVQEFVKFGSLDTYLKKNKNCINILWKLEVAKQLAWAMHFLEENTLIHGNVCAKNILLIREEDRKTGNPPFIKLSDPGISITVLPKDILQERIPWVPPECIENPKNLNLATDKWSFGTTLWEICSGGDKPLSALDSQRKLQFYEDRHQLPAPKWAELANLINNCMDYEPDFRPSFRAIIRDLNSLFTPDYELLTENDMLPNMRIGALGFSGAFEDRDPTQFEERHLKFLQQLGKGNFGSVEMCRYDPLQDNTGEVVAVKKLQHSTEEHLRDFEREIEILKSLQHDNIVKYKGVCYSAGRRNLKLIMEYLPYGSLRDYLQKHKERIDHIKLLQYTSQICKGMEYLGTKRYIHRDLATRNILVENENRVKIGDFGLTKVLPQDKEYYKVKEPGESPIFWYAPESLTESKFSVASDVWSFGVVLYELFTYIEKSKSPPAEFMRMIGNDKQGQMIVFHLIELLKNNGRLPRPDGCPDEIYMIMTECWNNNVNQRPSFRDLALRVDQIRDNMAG
T12 sequence (P05771 whole entry): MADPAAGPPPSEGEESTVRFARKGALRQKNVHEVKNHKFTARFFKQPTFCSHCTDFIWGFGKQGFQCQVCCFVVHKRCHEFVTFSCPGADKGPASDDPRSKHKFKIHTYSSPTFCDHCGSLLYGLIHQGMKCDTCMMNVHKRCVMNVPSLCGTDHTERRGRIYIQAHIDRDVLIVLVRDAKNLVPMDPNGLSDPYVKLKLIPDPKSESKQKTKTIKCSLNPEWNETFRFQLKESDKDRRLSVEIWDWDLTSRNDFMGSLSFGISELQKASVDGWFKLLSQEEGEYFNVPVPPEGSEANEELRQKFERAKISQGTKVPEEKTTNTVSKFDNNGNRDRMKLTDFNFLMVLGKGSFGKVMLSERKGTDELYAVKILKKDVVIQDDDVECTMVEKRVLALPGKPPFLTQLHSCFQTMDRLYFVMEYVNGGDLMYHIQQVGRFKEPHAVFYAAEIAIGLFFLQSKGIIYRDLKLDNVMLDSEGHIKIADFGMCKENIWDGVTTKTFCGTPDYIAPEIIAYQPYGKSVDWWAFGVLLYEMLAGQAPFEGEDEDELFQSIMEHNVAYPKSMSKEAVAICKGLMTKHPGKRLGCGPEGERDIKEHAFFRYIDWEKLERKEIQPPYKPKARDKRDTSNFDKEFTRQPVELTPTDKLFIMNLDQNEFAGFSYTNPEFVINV
T5 sequence (P11309 whole entry): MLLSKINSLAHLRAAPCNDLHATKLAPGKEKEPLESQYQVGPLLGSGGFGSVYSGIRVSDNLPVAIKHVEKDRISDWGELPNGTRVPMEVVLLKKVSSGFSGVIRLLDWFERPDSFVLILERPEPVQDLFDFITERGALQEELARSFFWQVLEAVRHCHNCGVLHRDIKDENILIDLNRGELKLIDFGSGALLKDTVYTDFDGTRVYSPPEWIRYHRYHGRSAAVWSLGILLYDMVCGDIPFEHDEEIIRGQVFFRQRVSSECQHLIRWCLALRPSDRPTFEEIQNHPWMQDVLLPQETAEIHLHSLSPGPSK
T1 sequence (P22455 22-802): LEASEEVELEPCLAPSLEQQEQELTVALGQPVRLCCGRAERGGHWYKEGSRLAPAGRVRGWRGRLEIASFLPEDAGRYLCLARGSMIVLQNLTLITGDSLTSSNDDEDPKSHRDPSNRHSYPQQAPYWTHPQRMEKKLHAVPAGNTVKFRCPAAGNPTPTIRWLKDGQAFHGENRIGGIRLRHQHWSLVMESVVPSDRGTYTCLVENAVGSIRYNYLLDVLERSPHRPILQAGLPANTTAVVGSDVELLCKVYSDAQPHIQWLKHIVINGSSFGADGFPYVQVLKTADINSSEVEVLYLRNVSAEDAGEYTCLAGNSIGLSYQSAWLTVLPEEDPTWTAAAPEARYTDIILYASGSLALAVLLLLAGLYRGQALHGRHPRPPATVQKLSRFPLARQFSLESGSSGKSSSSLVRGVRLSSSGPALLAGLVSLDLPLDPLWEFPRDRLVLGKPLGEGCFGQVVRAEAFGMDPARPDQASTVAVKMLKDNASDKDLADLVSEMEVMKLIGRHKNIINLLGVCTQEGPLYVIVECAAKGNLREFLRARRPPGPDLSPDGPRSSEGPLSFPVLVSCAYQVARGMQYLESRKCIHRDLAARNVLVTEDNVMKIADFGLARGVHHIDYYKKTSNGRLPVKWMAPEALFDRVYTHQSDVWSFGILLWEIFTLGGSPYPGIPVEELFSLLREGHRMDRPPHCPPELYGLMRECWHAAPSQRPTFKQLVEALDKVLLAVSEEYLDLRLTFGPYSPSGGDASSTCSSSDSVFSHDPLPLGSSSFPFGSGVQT
T3 sequence (Q06187 whole entry): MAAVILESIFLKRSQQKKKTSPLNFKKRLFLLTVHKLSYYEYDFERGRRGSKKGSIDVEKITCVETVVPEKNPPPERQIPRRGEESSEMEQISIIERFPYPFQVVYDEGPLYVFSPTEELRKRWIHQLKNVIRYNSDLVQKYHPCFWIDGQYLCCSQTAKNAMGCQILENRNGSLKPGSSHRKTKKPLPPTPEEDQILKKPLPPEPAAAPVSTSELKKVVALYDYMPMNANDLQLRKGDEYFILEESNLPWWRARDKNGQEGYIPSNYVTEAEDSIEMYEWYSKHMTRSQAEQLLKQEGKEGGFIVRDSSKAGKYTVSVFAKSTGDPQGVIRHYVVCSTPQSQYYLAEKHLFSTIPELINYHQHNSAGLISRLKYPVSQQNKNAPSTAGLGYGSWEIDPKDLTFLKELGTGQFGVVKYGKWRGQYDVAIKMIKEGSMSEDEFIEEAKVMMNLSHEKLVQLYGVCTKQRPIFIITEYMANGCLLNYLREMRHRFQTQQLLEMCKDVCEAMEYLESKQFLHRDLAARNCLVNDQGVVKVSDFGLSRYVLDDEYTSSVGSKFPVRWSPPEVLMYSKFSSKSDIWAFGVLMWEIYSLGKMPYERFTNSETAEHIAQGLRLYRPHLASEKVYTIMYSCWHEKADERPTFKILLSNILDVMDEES
T9 sequence (Q00535 whole entry): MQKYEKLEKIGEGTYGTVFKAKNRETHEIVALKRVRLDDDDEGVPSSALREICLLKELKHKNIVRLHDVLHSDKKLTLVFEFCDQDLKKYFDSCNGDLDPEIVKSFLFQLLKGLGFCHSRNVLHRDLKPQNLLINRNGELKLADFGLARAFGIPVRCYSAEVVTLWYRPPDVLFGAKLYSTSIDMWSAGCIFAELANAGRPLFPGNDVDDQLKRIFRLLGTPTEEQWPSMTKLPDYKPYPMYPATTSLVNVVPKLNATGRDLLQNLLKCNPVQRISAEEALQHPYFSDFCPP
T9 sequence (Q15078 whole entry partner): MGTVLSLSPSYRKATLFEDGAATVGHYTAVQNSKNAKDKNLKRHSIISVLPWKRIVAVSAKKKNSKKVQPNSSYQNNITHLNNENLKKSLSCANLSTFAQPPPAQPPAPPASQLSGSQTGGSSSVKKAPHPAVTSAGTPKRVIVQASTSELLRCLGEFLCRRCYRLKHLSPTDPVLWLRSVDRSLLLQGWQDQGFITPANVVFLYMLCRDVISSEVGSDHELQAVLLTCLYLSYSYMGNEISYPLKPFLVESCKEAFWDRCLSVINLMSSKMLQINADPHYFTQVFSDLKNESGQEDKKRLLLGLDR
T2 sequence (Q9P286 whole entry): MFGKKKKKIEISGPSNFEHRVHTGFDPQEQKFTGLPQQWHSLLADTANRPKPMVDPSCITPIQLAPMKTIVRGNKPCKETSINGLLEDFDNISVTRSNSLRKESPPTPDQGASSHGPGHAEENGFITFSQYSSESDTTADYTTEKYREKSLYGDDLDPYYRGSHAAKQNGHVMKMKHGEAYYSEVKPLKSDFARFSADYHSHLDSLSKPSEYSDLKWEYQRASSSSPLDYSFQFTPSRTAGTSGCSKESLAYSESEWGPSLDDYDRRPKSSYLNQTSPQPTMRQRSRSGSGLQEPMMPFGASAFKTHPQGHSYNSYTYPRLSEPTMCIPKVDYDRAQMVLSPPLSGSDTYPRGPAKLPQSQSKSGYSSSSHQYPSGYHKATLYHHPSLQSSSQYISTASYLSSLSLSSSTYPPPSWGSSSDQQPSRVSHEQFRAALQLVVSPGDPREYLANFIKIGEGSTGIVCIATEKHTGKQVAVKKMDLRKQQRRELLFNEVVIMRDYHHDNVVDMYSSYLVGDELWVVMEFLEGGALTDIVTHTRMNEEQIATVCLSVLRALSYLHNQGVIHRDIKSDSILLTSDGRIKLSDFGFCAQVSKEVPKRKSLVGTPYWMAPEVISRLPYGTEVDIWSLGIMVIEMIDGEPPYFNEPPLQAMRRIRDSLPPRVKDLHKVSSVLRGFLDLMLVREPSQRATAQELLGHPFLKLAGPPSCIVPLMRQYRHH

## CCn1c(=O)c(-c2ccc(-c3noc(C)n3)cc2Cl)cc2cnc(Nc3ccc(C4CCN(C)CC4)cc3)nc21 [Frax716]
FGFR4
  % inhibition of activity: 20%
PAK7 (KIAA 1264)
  % inhibition of activity: 17%
BTK
  % inhibition of activity: 87%
JAK3
  % inhibition of activity: 3%
PIM1
  % inhibition of activity: −4%
FGFR2
  % inhibition of activity: 60%
CHEK1 (CHK1)
  % inhibition of activity: −2%
MAPK3 (ERK1)
  % inhibition of activity: 8%
CDK5/p35
  % inhibition of activity: 2%
[1]
  % inhibition of activity: −1%
JAK2
  % inhibition of activity: 7%
PRKCB1 (PKC beta I)
  % inhibition of activity: 9%

## CCn1c(=O)c(-c2ccc(-c3cncc(C)n3)cc2Cl)cc2cnc(NCCC3CCN(C)CC3)nc21 [Frax1036]
FGFR4
  % inhibition of activity: 9%
PAK7 (KIAA 1264)
  % inhibition of activity: 9%
BTK
  % inhibition of activity: 5%
JAK3
  % inhibition of activity: 0%
PIM1
  % inhibition of activity: 0%
FGFR2
  % inhibition of activity: 15%
CHEK1 (CHK1)
  % inhibition of activity: −14%
MAPK3 (ERK1)
  % inhibition of activity: 4%
CDK5/p35
  % inhibition of activity: 7%
[1]
  % inhibition of activity: 0%
JAK2
  % inhibition of activity: 0%
PRKCB1 (PKC beta I)
  % inhibition of activity: 18%

## Cc1nc(Nc2[nH]nc3c2CN(C(=O)N[C@H](CN(C)C)c2ccccc2)C3(C)C)c2sccc2n1 [PF3758309, reference compound]
FGFR4
  % inhibition of activity: 11%
PAK7 (KIAA 1264)
  % inhibition of activity: 99%
BTK
  % inhibition of activity: 74%
JAK3
  % inhibition of activity: 10%
PIM1
  % inhibition of activity: 6%
FGFR2
  % inhibition of activity: 72%
CHEK1 (CHK1)
  % inhibition of activity: 91%
MAPK3 (ERK1)
  % inhibition of activity: 18%
CDK5/p35
  % inhibition of activity: 15%
[1]
  % inhibition of activity: 0%
JAK2
  % inhibition of activity: 14%
PRKCB1 (PKC beta I)
  % inhibition of activity: 58%

From publication PMC4385830, “Group I Paks as therapeutic targets in NF2-deficient meningioma” (Oncotarget, 2015)
